target: T1, human PAH with the R408W mutation (Homo sapiens, UniProt P00439, R408W); assay: Cell Based Phenylalanine Flux Assay; settings: A375 cells expressing R408W PAH; 24 hrs with compound, then 20 µM sepiapterin and 800 µM 13C9,15N-Phenylalanine for 4 hours; 13C-Tyrosine by LC-MS; average where tested multiple times; read-out: AC50;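 also: after compound treatment, cells received sepiapterin plus isotope-labelled Phenylalanine for 4 hours, then labelled Tyrosine in the medium was quantified, 10-point 2-fold dilution series run in duplicate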
T1 construct: expressed in transfected cells
T1 sequence (P00439 1-452 R408W): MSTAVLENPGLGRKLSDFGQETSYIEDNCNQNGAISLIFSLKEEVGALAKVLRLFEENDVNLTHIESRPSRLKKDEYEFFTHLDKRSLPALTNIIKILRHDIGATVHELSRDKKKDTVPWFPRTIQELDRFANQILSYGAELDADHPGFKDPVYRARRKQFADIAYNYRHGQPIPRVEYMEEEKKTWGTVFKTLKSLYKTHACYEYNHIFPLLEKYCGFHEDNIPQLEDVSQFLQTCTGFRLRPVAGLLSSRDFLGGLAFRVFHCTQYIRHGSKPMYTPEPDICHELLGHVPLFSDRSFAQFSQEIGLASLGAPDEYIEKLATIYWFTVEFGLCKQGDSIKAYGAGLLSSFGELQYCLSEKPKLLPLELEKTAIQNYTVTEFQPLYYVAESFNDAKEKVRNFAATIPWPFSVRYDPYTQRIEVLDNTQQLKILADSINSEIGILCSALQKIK

Structure (SMILES) | AC50 [µM]
Cc1ccn2nc(C3c4nc[nH]c4CCN3C(=O)c3nnc(-c4ccn(C)n4)o3)cc2c1 (stereo not drawn) [listing 1 of 2 here] | > 5
Cc1ccn2nc(C3c4nc[nH]c4CCN3C(=O)c3nnc(-c4cnn(C)c4)o3)cc2c1 (stereo not drawn) | > 5
Cc1ccn2nc(C3c4nc[nH]c4CCN3C(=O)c3nnc(-c4ccn(C)n4)o3)cc2c1 (stereo not drawn) [listing 2 of 2 here] | 1 to 5
Cc1cccn2nc(C3c4nc[nH]c4CCN3C(=O)c3oc(-c4ccccn4)nc3C(F)F)cc12 (stereo not drawn) | 1 to 5
CC(C)(O)c1nnc(C(=O)N2CCc3[nH]cnc3C2c2cc3c(F)cccn3n2)o1 (stereo not drawn) | 1 to 5
Cc1cccn2nc(C3c4nc[nH]c4CCN3C(=O)c3nnc(C(C)(C)O)o3)cc12 (stereo not drawn) | 1 to 5
CC(C)(O)c1ncc(C(=O)N2CCc3[nH]cnc3C2c2cc3ccccn3n2)o1 (stereo not drawn) | 1 to 5
O=C(c1nnc(N2CCOCC2)o1)N1CCc2[nH]cnc2C1c1cc2c(F)cccn2n1 (stereo not drawn) | 1 to 5
Cc1cccn2nc(C3c4nc[nH]c4CCN3C(=O)c3nnc(N4CCOCC4)o3)cc12 (stereo not drawn) | 1 to 5
Cn1cc(-c2nc(C(F)F)c(C(=O)N3CCc4[nH]cnc4C3c3cc4ccccn4n3)o2)cn1 (stereo not drawn) | 1 to 5
Cn1ccc(-c2nc(C(F)F)c(C(=O)N3CCc4[nH]cnc4C3c3cc4ccccn4n3)o2)n1 (stereo not drawn) | > 5
Cc1cccn2nc(C3c4nc[nH]c4CCN3C(=O)c3oc(-c4ccn(C)n4)nc3C(F)F)cc12 (stereo not drawn) | 1 to 5
Cn1ccc(-c2nc(C(F)F)c(C(=O)N3CCc4[nH]cnc4C3c3cc4c(F)cccn4n3)o2)n1 (stereo not drawn) | > 5
Cc1nc(C(=O)N2CCc3[nH]cnc3C2c2cc3c(F)cccn3n2)n(C)n1 (stereo not drawn) | 1 to 5
Cc1cccc2cc([C@H]3c4nc[nH]c4CCN3C(=O)c3ncnn3C)nn12 (single isomer, unassigned) | > 5
Cn1cc(-c2ccc3c(C(=O)N4CCc5[nH]cnc5[C@@H]4c4cc5ccccn5n4)cnn3c2)cn1 (single isomer, unassigned) | 1 to 5
O=C(c1nnc(C2CC(F)(F)C2)o1)N1CCc2[nH]cnc2[C@@H]1c1cc2cccc(C(F)F)n2n1 (single isomer, unassigned) | > 5
FC(F)c1cccn2nc([C@H]3c4nc[nH]c4CCN3c3nc4ccccc4o3)cc12 (single isomer, unassigned) | > 5
Cn1cc(-c2nnc(C(=O)N3CCc4[nH]cnc4[C@@H]3c3cc4cc(F)ccn4n3)o2)cn1 (single isomer, unassigned) | 1 to 5
Cc1nc(C(C)(C)O)oc1C(=O)N1CCc2[nH]cnc2[C@@H]1c1cc2cccc(C(F)(F)F)n2n1 (single isomer, unassigned) | 1 to 5
CC(C)c1nnc(C(=O)N2CCc3[nH]cnc3[C@@H]2c2cc3cccc(C(F)(F)F)n3n2)o1 (single isomer, unassigned) | 1 to 5
FC(F)c1cccc2cc([C@H]3c4nc[nH]c4CCN3c3nnc(C4CCC4)o3)nn12 (single isomer, unassigned) | > 5

Structure (SMILES) | AC50 [µM]
Cc1nnc(C(=O)N2CCc3[nH]cnc3[C@@H]2c2cc3cccc(C(F)(F)F)n3n2)o1 (single isomer, unassigned) | 1 to 5
Cc1cccn2nc([C@H]3c4nc[nH]c4CCN3c3nnc(-c4cccnc4)o3)cc12 (single isomer, unassigned) | > 5
COc1cccn2nc([C@H]3c4nc[nH]c4CCN3C(=O)c3cc(C(C)(C)C)nn3C)cc12 (single isomer, unassigned) | > 5
O=C(c1ocnc1C1CC1)N1CCc2[nH]cnc2[C@@H]1c1cc2cccc(C(F)(F)F)n2n1 (single isomer, unassigned) | > 5
O=C(c1cnco1)N1CCc2[nH]cnc2[C@@H]1c1cc2ccccn2n1 (single isomer, unassigned) | 1 to 5
Cc1cccc2cc([C@H]3c4nc[nH]c4CCN3C(=O)c3cnn4cc(C5CC5)ccc34)nn12 (single isomer, unassigned) | > 5
Cc1ccn2nc([C@@H]3c4nc[nH]c4CCN3C(=O)c3ccnn3C(F)F)cc2c1 (single isomer, unassigned) | 1 to 5
Cn1cc(N2CCc3[nH]cnc3[C@H]2c2cc3ccccn3n2)cn1 (single isomer, unassigned) | > 5
Cn1ccc(-c2ncc(C(=O)N3CCc4[nH]cnc4[C@H]3c3cc4ccccn4n3)o2)n1 (single isomer, unassigned) | 1 to 5
CC1(c2nnc(-n3cnc4c3[C@@H](c3cc5ccccn5n3)NCC4)o2)CC1 (single isomer, unassigned) | 1 to 5
Cc1c([C@@H]2c3nc[nH]c3CCN2C(=O)c2nnc(-c3cnn(C)c3C)o2)nn2ccccc12 (single isomer, unassigned) | 1 to 5
CC(C)(F)c1nnc(C(=O)N2CCc3[nH]cnc3[C@H]2c2cc3cc(C(F)(F)F)ccn3n2)o1 (single isomer, unassigned) | 1 to 5
CC(C)(F)c1nnc(C(=O)N2CCc3[nH]cnc3C2c2cc3cc(F)ccn3n2)o1 (single isomer, unassigned) | 1 to 5
Cc1cccn2nc([C@@H]3c4nc[nH]c4CCN3c3nnc(C4CC(F)(F)C4)o3)cc12 (single isomer, unassigned) | 1 to 5
O=C(c1nnc(C2CC(F)(F)C2)o1)N1CCc2[nH]cnc2[C@H]1c1cc2cccc(F)n2n1 (single isomer, unassigned) | 1 to 5
Cn1cc(-c2nnc(N3CCc4[nH]cnc4[C@H]3c3cc4c(F)cccn4n3)o2)cn1 (single isomer, unassigned) | 1 to 5
Cc1nnc(N2CCc3[nH]cnc3[C@H]2c2cc3c(F)cccn3n2)o1 (single isomer, unassigned) | 1 to 5
O=C(c1nnc(-c2cn[nH]c2)o1)N1CCc2[nH]cnc2[C@H]1c1cc2c(F)cccn2n1 (single isomer, unassigned) | 1 to 5
COc1cccn2nc([C@@H]3c4nc[nH]c4CCN3c3nnc(C)o3)cc12 (single isomer, unassigned) | 1 to 5
Cc1nnc(C(=O)N2CCc3[nH]cnc3[C@H]2c2cc3ccc(F)cn3n2)o1 (single isomer, unassigned) | 1 to 5
Cc1nnc(C(=O)N2CCc3[nH]cnc3[C@H]2c2cc3cccc(C(F)F)n3n2)o1 (single isomer, unassigned) | 1 to 5
Cn1cnc(-c2nnc(C(=O)N3CCc4[nH]cnc4[C@H]3c3cc4cccc(C(F)F)n4n3)o2)c1 (single isomer, unassigned) | 1 to 5

Structure (SMILES) | AC50 [µM]
Nc1cnc(N2CCc3[nH]cnc3[C@H]2c2cc3cccc(C(F)F)n3n2)nc1 (single isomer, unassigned) | > 5
Cc1nnc(N2CCc3[nH]cnc3[C@H]2c2cc3cccc(Cl)n3n2)o1 (single isomer, unassigned) | 1 to 5
O=C(c1oc(-c2ccccn2)nc1C1CC1)N1CCCc2[nH]cnc2[C@H]1c1cc2ccccn2n1 (single isomer, unassigned) | 1 to 5
FC(F)(F)c1cccn2nc([C@@H]3c4nc[nH]c4CCN3c3nnc(-c4ncccn4)o3)cc12 (single isomer, unassigned) | 1 to 5
O=C(c1nnc(-c2ncccn2)o1)N1CCc2[nH]cnc2[C@H]1c1cc2c(C3CC3)cccn2n1 (single isomer, unassigned) | > 5
COc1cccn2nc([C@@H]3c4nc[nH]c4CCN3C(=O)c3nnc(C(C)(C)O)o3)cc12 (single isomer, unassigned) | > 5
Cc1cccn2nc([C@@H]3c4nc[nH]c4CCN3c3nnc(-c4ncccn4)o3)cc12 (single isomer, unassigned) | 1 to 5
CC(C)(O)c1ncc(C(=O)N2CCc3[nH]cnc3[C@H]2c2cc3cccc(Cl)n3n2)o1 (single isomer, unassigned) | 1 to 5
Cc1cccc2cc([C@@H]3c4nc[nH]c4CCN3C(=O)c3cnc(C(C)(C)O)o3)nn12 (single isomer, unassigned) | 1 to 5
O=C(c1cnc(-c2cnccn2)o1)N1CCc2[nH]cnc2C1c1cc2ccccn2n1 (single isomer, unassigned) | 1 to 5
COc1cccn2nc([C@@H]3c4nc[nH]c4CCN3c3nnc(C4CC4)o3)cc12 (single isomer, unassigned) | 1 to 5
c1ccn2nc([C@H]3NCCc4ncn(-c5nnc(C6CC6)o5)c43)cc2c1 (single isomer, unassigned) | 1 to 5
Fc1cccn2nc(C3c4nc[nH]c4CCN3c3nnc(-c4cccnc4)o3)cc12 (single isomer, unassigned) | 1 to 5
c1ccn2nc([C@@H]3c4nc[nH]c4CCN3c3nnc(N4CCOCC4)o3)cc2c1 (single isomer, unassigned) | > 5
COCc1ccc2c(C(=O)N3CCc4[nH]cnc4[C@H]3c3cc4cccc(F)n4n3)cnn2c1 (single isomer, unassigned) | 1 to 5
O=C(c1cnco1)N1CCc2[nH]cnc2[C@H]1c1cc2ccc(F)cn2n1 (single isomer, unassigned) | 1 to 5
Cn1ncc(C(=O)N2CCc3[nH]cnc3[C@H]2c2cc3ccccn3n2)c1C(F)F (single isomer, unassigned) | 1 to 5
CN(C)C(=O)c1nnc(N2CCc3[nH]cnc3[C@H]2c2cc3c(C(F)(F)F)cccn3n2)o1 (single isomer, unassigned) | 1 to 5
Cc1nc([C@H](C)O)oc1C(=O)N1CCc2[nH]cnc2[C@H]1c1cc2cccc(C)n2n1 (single isomer, unassigned) | 1 to 5
COc1cccn2nc([C@@H]3c4nc[nH]c4CCN3C(=O)c3cnn4cc(CN(C)C)ccc34)cc12 (single isomer, unassigned) | 1 to 5
CN(C)CCc1ccc2c(C(=O)N3CCc4[nH]cnc4[C@H]3c3cc4ccccn4n3)cnn2c1 (single isomer, unassigned) | > 5
COC(=O)N1CC(C(=O)N2CCc3[nH]cnc3[C@H]2c2cc3ccccn3n2)C1 (single isomer, unassigned) | > 5

Reference: patent US20230365592A1 (Agios Pharmaceuticals, Inc., priority 2022, published 2023)
